This is an account of results in article PMC6857474, “Differential Effects of the Mitochondria-Active Tetrapeptide SS-31 (D-Arg-dimethylTyr-Lys-Phe-NH2) and Its Peptidase-Targeted Prodrugs in Experimental Acute Kidney Injury” (Frontiers in Pharmacology, 2019).

Data set [1] relates to BALB/c male mice. As to the kind of experiment: Aristolochic acid (AA)-induced acute tubulo-interstitial kidney injury model. As to conditions: AA 1 x 5 mg/kg i.p. alone; control group 44 ± 5. The format is in vivo, mouse. Here is the method: (§1) All experiments were conducted in accordance with federal and local regulations, according to a protocol approved by the animal ethics committee of the Canton de Vaud, Switzerland (No. 2655.0). Kidney injury was induced by intraperitoneal (i.p.) injection of AA (Sigma-Aldrich, 1 × 5 mg/kg) or ADR (Adriblastin, Pfizer, 1 × 10 mg/kg) in 10-week-old BALB/c male mice (n = 5–7 mice/experimental group). SS-31 analogs were diluted in 0.9% NaCl and administered i.p. once a day, starting 1 day before the disease-inducing drugs (day −1) at a dose of 3 mg/kg and then daily until day 6. The animals were weighted at days 0, 3, and 6, and sacrificed at day 7. The level of protein in urine was semi-quantitatively assessed using Albustix reagent strips (Bayer, Basel, Switzerland). At the end of the treatment period, the mice were sacrificed to remove both kidneys. The kidneys were spliced in four equal fragments containing the cortex and medulla. One fragment was immediately snap-frozen in liquid nitrogen for real-time quantitative polymerase chain reaction (qRT-PCR) and Western blot experiments, one fragment was included in OCT (Tissue-Tek, VWR International, Dietikon, Switzerland) and frozen for histoenzymography, one fragment was frozen at −80°C and used for pharmacokinetic (PK) measurements, and one fragment was fixed in 4% paraformaldehyde and included in paraffin for histology. […]

Data set [2] has as its system BALB/c male mice. Briefly: Adriamycin (ADR)-induced glomerular damage model. The format is in vivo, mouse. To be noted: ADR 1 x 10 mg/kg i.p. alone, at the time of sacrifice. Here is the method:
as §1

Data set [3] deals with T1, γ-glutamyltranspeptidase (γ-GT) (Rattus norvegicus, UniProt P07314).
T1 construct: These cells express high levels of APA and γ-GT activities and can be used to measure kinetics in living cells; endogenous in cells; host or cells: EC219 rat brain-derived endothelial cells
T1 sequence (P07314 whole entry): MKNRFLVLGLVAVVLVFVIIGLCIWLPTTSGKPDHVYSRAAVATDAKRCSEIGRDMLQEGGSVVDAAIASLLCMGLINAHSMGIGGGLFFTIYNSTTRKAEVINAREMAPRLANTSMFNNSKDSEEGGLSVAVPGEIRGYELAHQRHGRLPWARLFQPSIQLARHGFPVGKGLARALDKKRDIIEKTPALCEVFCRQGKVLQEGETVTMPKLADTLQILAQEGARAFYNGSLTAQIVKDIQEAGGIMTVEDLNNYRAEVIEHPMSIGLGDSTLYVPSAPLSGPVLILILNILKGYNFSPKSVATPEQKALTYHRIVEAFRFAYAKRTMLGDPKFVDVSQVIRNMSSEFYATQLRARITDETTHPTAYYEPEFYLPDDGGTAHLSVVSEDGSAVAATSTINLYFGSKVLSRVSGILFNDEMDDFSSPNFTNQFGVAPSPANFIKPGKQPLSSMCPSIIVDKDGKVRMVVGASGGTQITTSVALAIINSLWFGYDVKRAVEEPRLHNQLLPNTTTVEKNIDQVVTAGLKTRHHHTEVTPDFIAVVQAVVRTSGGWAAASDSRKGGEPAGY
As to the kind of experiment: γ-GT enzymatic activity in intact living EC219 cells (γ-Glu-AMC substrate). The format is cell-based. As to conditions: 40 µM γ-Glu-AMC. Here is the method:
The preparation and characterization of rat brain-derived EC219 endothelial cells were previously described ([Juillerat-Jeanneret et al., 1992]). These cells express high levels of APA and γ-GT activities and can be used to measure kinetics in living cells as APA and γ-GT-positive representative cell models. The cells were grown in Dulbecco’s modified Eagle medium (DMEM) containing 1 g/L glucose, 10% heat-inactivated fetal calf serum (FCS), and antibiotics on uncoated cell culture plastic plates and flasks. […]
Stock solutions of α-Glu-AMC (APA) and γ-Glu-AMC and Gly-Gly (γ-GT) substrates, all from Bachem, were prepared at 10 mM in DMSO. […] The increase in absorbance was measured at 37°C in a thermostated fluorescence multiwell-plate reader (CytoFluor Series 4000; PerSeptive Biosystems, MA, USA) at λex = 360 nm/λem = 460 nm using the linear portion of the curves. The kinetics values were then graphically determined or according to Wu and colleagues ([Wu et al., 2011]).
(A) Intact living EC219 cells were exposed to increasing concentrations of either amastatin (left panel) or acivicin (right panel), two well-characterized enzymatic activity inhibitors of APA or γ-GT, respectively. The activities of the enzymes aminopeptidase A (APA) or γ-glutamyltranspeptidase (γ-GT) were determined using 40 µM of the substrates (S), α-Glu-AMC or γ-Glu-AMC, respectively. […] Data were analyzed graphically. […]

The target in the next data set is T2, aminopeptidase A (APA) (Mus musculus, UniProt P16406).
T2 construct: from tissue; host or cells: frozen kidney sections of ADR-treated BALB/c male mice
T2 sequence (P16406 1-945): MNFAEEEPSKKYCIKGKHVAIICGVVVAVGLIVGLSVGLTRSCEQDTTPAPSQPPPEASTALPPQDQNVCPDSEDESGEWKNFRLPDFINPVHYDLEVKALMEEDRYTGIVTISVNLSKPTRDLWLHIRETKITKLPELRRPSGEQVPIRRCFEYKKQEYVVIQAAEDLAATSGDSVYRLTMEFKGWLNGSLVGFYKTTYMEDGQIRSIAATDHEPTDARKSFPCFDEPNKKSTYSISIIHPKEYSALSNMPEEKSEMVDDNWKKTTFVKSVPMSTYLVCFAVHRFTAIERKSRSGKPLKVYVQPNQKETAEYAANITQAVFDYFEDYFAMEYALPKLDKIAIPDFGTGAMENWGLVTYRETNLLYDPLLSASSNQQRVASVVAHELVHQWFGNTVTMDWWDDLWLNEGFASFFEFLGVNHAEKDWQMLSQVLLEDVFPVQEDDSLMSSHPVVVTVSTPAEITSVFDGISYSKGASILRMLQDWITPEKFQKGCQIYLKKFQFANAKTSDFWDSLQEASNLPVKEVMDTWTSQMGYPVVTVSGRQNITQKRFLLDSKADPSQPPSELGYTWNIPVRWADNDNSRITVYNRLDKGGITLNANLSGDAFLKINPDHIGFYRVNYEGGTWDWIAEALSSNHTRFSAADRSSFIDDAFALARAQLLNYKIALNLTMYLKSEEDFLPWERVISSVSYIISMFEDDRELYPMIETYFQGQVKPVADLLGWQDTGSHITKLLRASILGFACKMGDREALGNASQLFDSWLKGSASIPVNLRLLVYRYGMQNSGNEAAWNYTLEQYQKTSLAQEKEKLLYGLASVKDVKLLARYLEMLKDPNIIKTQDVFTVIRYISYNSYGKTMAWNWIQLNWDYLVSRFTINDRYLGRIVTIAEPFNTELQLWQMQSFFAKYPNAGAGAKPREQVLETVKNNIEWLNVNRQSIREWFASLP
As to the kind of experiment: Histoenzymography of APA activity on frozen kidney sections of ADR-treated mice. The format is biochemical. To be noted: kidney sections of ADR-exposed mice, α-Glu-βNA substrate, 37°C. The method, then:
(§2) Enzymatic activities were evaluated by histoenzymography on OCT-embedded frozen kidneys sections (7 µm), as previously described ([Juillerat-Jeanneret et al., 1992]; [Juillerat-Jeanneret et al., 2000]; [Juillerat-Jeanneret et al., 2003]). Briefly, slides were fixed for 5 min in cold (−20°C) acetone, air dried at room temperature, rehydrated for 5 min in 0.9% NaCl, and exposed to the α-Glu-4-methoxy-β-naphtylamide (APA; Bachem) or γ-Glu-4-methoxy-β-naphtylamide (γ-GT; Serva) substrates and Fast Blue B (Sigma-Aldrich) at 37°C for 15 to 60 min until a red coloration was visible. The slides were washed in distilled water, counterstained with hematoxylin (Mayer) for 1 min, rinsed under tap water and then with Scott solution for 1 min, and mounted in Aquamount (Immu-mount; Thermo Shandon, Pittsburgh, PA, USA) and analyzed with a Nikon Eclipse E800 microscope and digital DXM1200 camera using ACT-1 software.
(§3) Sequential sections (7 µm) of frozen OCT-embedded kidneys of adriamycin (ADR)-treated mice were exposed at 37°C to β-methoxynaphthylamide (β-NA) specific substrates of aminopeptidase A (α-Glu-βNA, upper panels) or γ-glutamyltranspeptidase (γ-Glu-βNA, lower panels) and Fast Blue B, in the absence (none) or the presence of SS-31, α-Glu-SS-31 or γ-Glu-SS-31. The sections were then counterstained with light hematoxylin reagent. The enzymatic activity is visualized as a red precipitate. […]

Data set [4] addresses T3, γ-glutamyltranspeptidase (γ-GT) (Mus musculus, UniProt Q60928).
T3 construct: from tissue; host or cells: frozen kidney sections of ADR-treated BALB/c male mice
As to the kind of experiment: Histoenzymography of γ-GT activity on frozen kidney sections of ADR-treated mice. Format: biochemical. To be noted: kidney sections of ADR-exposed mice, γ-Glu-βNA substrate, 37°C. The method, then:
as §2, §3

T3 sequence (Q60928 whole entry): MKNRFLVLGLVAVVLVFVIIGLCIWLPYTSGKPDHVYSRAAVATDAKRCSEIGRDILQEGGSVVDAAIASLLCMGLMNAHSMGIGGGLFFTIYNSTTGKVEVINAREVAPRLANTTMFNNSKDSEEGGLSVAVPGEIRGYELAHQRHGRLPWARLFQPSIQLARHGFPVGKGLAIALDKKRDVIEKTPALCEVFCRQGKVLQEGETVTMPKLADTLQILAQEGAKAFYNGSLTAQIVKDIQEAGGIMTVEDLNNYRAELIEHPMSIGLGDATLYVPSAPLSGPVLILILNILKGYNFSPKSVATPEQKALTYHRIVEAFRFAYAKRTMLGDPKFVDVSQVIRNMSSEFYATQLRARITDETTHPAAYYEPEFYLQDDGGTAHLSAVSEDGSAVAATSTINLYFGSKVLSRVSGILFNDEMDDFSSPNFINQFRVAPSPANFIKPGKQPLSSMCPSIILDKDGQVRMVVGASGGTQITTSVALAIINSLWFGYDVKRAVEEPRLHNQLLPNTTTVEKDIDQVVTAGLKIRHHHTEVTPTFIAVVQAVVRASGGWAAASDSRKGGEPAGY

For the molecule `COc1cccc2c1cc([N+](=O)[O-])c1c(C(=O)O)cc3c(c12)OCO3` [AA, aristolochic acid], in the data set on BALB/c male mice [1], the mean creatinine turned out to be 258 ± 92 µmol/L.
In the data set on BALB/c male mice [2], `COc1cccc2c1C(=O)c1c(O)c3c(c(O)c1C2=O)C[C@@](O)(C(=O)CO)C[C@@H]3O[C@H]1C[C@H](N)[C@H](O)[C@H](C)O1` [ADR, adriamycin] displayed a mean creatinine of 33 ± 5 µmol/L.
On to `N[C@H](C(=O)O)[C@@H]1CC(Cl)=NO1` [acivicin], for which the IC50 in data set [3] came out at 48 µM.
For “H-γ-Glu-D-Arg-DMT-Lys-Phe-NH 2 .2TFA [γ-Glu-SS-31]”, at aminopeptidase A (APA), the “enzymatic activity of APA (histoenzymography)” value is “not”. Besides, the “enzymatic activity of γ-GT (histoenzymography)” value in data set [4] is listed as “modified neither”.

As usually defined, the IC50 is the concentration that gives 50% inhibition. Low values mean inhibition by little substance, high ones a need for much substance.
